# Tests used:
# [1] = target: SARS-CoV-2 M^pro T21I + L50F + A193P + S301P (Severe acute respiratory syndrome coronavirus 2, UniProt P0DTC1, A3456P/L3313F/S3564P/T3284I); assay type: biochemical
# [2] = target: SARS-CoV-2 M^pro T21I + A173V (Severe acute respiratory syndrome coronavirus 2, UniProt P0DTC1, A3436V/T3284I); assay type: biochemical
# [3] = target: SARS-CoV-2 M^pro T21I (Severe acute respiratory syndrome coronavirus 2, UniProt P0DTC1, T3284I); assay type: biochemical
# [4] = target: SARS-CoV-2 M^pro T21I + A173V + T304I (Severe acute respiratory syndrome coronavirus 2, UniProt P0DTC1, A3436V/T3284I/T3567I); assay type: biochemical
# [5] = target: SARS-CoV-2 M^pro L50F + T304I (Severe acute respiratory syndrome coronavirus 2, UniProt P0DTC1, L3313F/T3567I); assay type: biochemical
# [6] = target: T1, SARS-CoV-2 M^pro G15S (Severe acute respiratory syndrome coronavirus 2, UniProt P0DTC1, G3278S); assay type: biochemical
# [7] = target: SARS-CoV-2 M^pro L50F + E166A + L167F (Severe acute respiratory syndrome coronavirus 2, UniProt P0DTC1, E3429A/L3313F/L3430F); assay type: biochemical
# [8] = target: SARS-CoV-2 M^pro T21I + T304I (Severe acute respiratory syndrome coronavirus 2, UniProt P0DTC1, T3284I/T3567I); assay type: biochemical
# [9] = target: SARS-CoV-2 M^pro T135I + T304I (Severe acute respiratory syndrome coronavirus 2, UniProt P0DTC1, T3398I/T3567I); assay type: biochemical
# [10] = target: SARS-CoV-2 M^pro S144A (Severe acute respiratory syndrome coronavirus 2, UniProt P0DTC1, S3407A); assay type: biochemical
# [11] = target: T2, SARS-CoV-2 M^pro D248E (Severe acute respiratory syndrome coronavirus 2, UniProt P0DTC1, D3511E); assay type: biochemical
# [12] = target: SARS-CoV-2 M^pro A260V (Severe acute respiratory syndrome coronavirus 2, UniProt P0DTC1, A3523V); assay type: biochemical
# [13] = target: SARS-CoV-2 M^pro H172Y (Severe acute respiratory syndrome coronavirus 2, UniProt P0DTC1, H3435Y); assay type: biochemical
# [14] = target: SARS-CoV-2 M^pro H172Y + P252L (Severe acute respiratory syndrome coronavirus 2, UniProt P0DTC1, H3435Y/P3515L); assay type: biochemical
# [15] = target: SARS-CoV-2 M^pro L50F (Severe acute respiratory syndrome coronavirus 2, UniProt P0DTC1, L3313F); assay type: biochemical
# [16] = target: SARS-CoV-2 M^pro A173V + T304I (Severe acute respiratory syndrome coronavirus 2, UniProt P0DTC1, A3436V/T3567I); assay type: biochemical
# [17] = target: SARS-CoV-2 M^pro E166V (Severe acute respiratory syndrome coronavirus 2, UniProt P0DTC1, E3429V); assay type: biochemical
# [18] = target: SARS-CoV-2 M^pro L50F + F140L + L167F + T304I (Severe acute respiratory syndrome coronavirus 2, UniProt P0DTC1, F3403L/L3313F/L3430F/T3567I); assay type: biochemical
# [19] = target: SARS-CoV-2 M^pro L50F + E166A (Severe acute respiratory syndrome coronavirus 2, UniProt P0DTC1, E3429A/L3313F); assay type: biochemical
# [20] = target: SARS-CoV-2 M^pro K90R (Severe acute respiratory syndrome coronavirus 2, UniProt P0DTC1, K3353R); assay type: biochemical
# [21] = target: SARS-CoV-2 M^pro L50F + A173V (Severe acute respiratory syndrome coronavirus 2, UniProt P0DTC1, A3436V/L3313F); assay type: biochemical
# [22] = target: SARS-CoV-2 M^pro Q189K (Severe acute respiratory syndrome coronavirus 2, UniProt P0DTC1, Q3452K); assay type: biochemical
# [23] = target: T3, SARS-CoV-2 M^pro H164N (Severe acute respiratory syndrome coronavirus 2, UniProt P0DTC1, H3427N); assay type: biochemical
# [24] = target: T4, SARS-CoV-2 M^pro T135I (Severe acute respiratory syndrome coronavirus 2, UniProt P0DTC1, T3398I); assay type: biochemical
# [25] = target: SARS-CoV-2 M^pro L50F + E166V (Severe acute respiratory syndrome coronavirus 2, UniProt P0DTC1, E3429V/L3313F); assay type: biochemical
# [26] = target: SARS-CoV-2 M^pro T21I + E166V (Severe acute respiratory syndrome coronavirus 2, UniProt P0DTC1, E3429V/T3284I); assay type: biochemical
# [27] = target: SARS-CoV-2 M^pro T21I + S144A (Severe acute respiratory syndrome coronavirus 2, UniProt P0DTC1, S3407A/T3284I); assay type: biochemical
# [28] = target: SARS-CoV-2 M^pro T21I + S144A + T304I (Severe acute respiratory syndrome coronavirus 2, UniProt P0DTC1, S3407A/T3284I/T3567I); assay type: biochemical
# [29] = target: SARS-CoV-2 M^pro T21I + L50F (Severe acute respiratory syndrome coronavirus 2, UniProt P0DTC1, L3313F/T3284I); assay type: biochemical
# [30] = target: SARS-CoV-2 M^pro T21I + C160F + A173V+ V186A + T304I (Severe acute respiratory syndrome coronavirus 2, UniProt P0DTC1, A3436V/C3423F/T3284I/T3567I/V3449A); assay type: biochemical
# [31] = target: SARS-CoV-2 M^pro E166A (Severe acute respiratory syndrome coronavirus 2, UniProt P0DTC1, E3429A); assay type: biochemical
# [32] = test system: SARS-CoV-2 M^pro P132H; details: cited from earlier work
# [33] = target: T4, SARS-CoV-2 M^pro T135I; details: cited from earlier work
# [34] = target: T1, SARS-CoV-2 M^pro G15S; details: cited from earlier work
# [35] = target: T3, SARS-CoV-2 M^pro H164N; details: cited from earlier work
# [36] = target: T2, SARS-CoV-2 M^pro D248E; details: cited from earlier work
# [37] = test system: SARS-CoV-2-EGFP replicon L50F; assay type: cell-based
# [38] = test system: SARS-CoV-2-EGFP replicon L167F; assay type: cell-based
# [39] = test system: SARS-CoV-2-EGFP replicon T21I; assay type: cell-based
# [40] = test system: SARS-CoV-2-EGFP replicon L50F + E166A + L167F; assay type: cell-based
# [41] = test system: SARS-CoV-2-EGFP replicon S144A; assay type: cell-based
# [42] = test system: SARS-CoV-2-EGFP replicon E166A; assay type: cell-based
# [43] = test system: SARS-CoV-2-EGFP replicon T21I + L50F; assay type: cell-based
# [44] = test system: SARS-CoV-2 D614G B.1 (ancestral); assay type: cell-based
# [45] = test system: SARS-CoV-2-EGFP replicon L50F + E166A; assay type: cell-based
compound,measurement,setting,value
GC376,IC50,[1],70 nM
same,IC50,[2],80 nM
same,IC50,[3],20 nM
same,IC50,[4],90 nM
same,IC50,[5],60 nM
same,IC50,[6],20 nM
same,IC50,[7],760 nM
same,IC50,[8],50 nM
same,IC50,[9],70 nM
same,IC50,[10],120 nM
same,IC50,[11],30 nM
same,IC50,[12],20 nM
same,IC50,[13],410 nM
same,IC50,[14],280 nM
same,IC50,[15],20 nM
same,IC50,[16],100 nM
same,IC50,[17],660 nM
same,IC50,[18],170 nM
same,IC50,[19],270 nM
same,IC50,[20],10 nM
same,IC50,[21],60 nM
same,IC50,[22],50 nM
same,IC50,[23],80 nM
same,IC50,[24],20 nM
same,IC50,[25],430 nM
same,IC50,[26],590 nM
same,IC50,[27],120 nM
same,IC50,[28],190 nM
same,IC50,[29],20 nM
same,IC50,[30],90 nM
same,IC50,[31],320 nM
CC(C)(C)[C@H](NC(=O)C(F)(F)F)C(=O)N1C[C@H]2[C@@H]([C@H]1C(=O)N[C@H](C#N)C[C@@H]1CCNC1=O)C2(C)C [nirmatrelvir],effect of P132H variant on inhibition,[32],no effect
same,resistance in the Mpro assay,[33],~fourfold
same,resistance in the Mpro assay,[34],~fourfold
same,resistance in the Mpro assay,[35],~fourfold
same,resistance in the Mpro assay,[36],~fourfold
N#C[C@H](C[C@@H]1CCCNC1=O)NC(=O)[C@H](CC1CC1)NC(=O)c1cc2cccc(Cl)c2[nH]1 [pomotrelvir],EC50,[37]; read-out: EC50 Mean (SD),14 nM
same,EC90,[37]; read-out: EC90 Mean (SD),150 nM
same,EC50,[38]; read-out: EC50 Mean (SD),56 nM
same,EC90,[38]; read-out: EC90 Mean (SD),510 nM
same,EC50,[39]; read-out: EC50 Mean (SD),33 nM
same,EC90,[39]; read-out: EC90 Mean (SD),270 nM
same,EC50,[40]; read-out: EC50 Mean (SD),1400 nM
same,EC90,[40]; read-out: EC90 Mean (SD),8.3 µM
same,EC50,[41]; read-out: EC50 Mean (SD),92 nM
same,EC90,[41]; read-out: EC90 Mean (SD),560 nM
same,EC50,[42]; read-out: EC50 Mean (SD),110 nM
same,EC90,[42]; read-out: EC90 Mean (SD),710 nM
same,EC50,[43]; read-out: EC50 Mean (SD),110 nM
same,EC90,[43]; read-out: EC90 Mean (SD),780 nM
same,EC50,[44]; read-out: EC50 Mean (SD),151 nM
same,EC90,[44]; read-out: EC90 Mean (SD),547 nM
same,EC50,[45]; read-out: EC50 Mean (SD),410 nM
same,EC90,[45]; read-out: EC90 Mean (SD),1800 nM
